{"source": "patent US20220409617A1", "about": "“Drug Formulations and Methods of Treatment for Metabolic Disorders” (The Regents of the University of California, priority 2019, published 2022)", "tested_on": "diet-induced obesity", "experiment": "Weight loss intervention study in HFD-fed mice", "assay_type": "in vivo", "experimental": "Given its ability to correct HFD-induced mitochondrial fragmentation in vivo, sphingolipid-like compound 893 was evaluated as an interventional therapy for diet-induced obesity. Six-week old male, C57BL/6J mice were fed the HFD for 45 days; an age-matched cohort of control mice was maintained on the SD throughout the study. After 45 days, the average body weight of HFD-fed mice was approximately 130% that of chow-fed mice (FIGS. 15 to 17). Using quantitative nuclear magnetic resonance imaging, fat mass represented 21% of the body weight of mice that had consumed the HFD for 45 days and 12% of body weight in controls fed the standard diet; changes in lean body mass were of lesser magnitude (FIG. 17). At this point, HFD-fed mice were randomly assigned to receive vehicle (water), 60 mg/kg, or 120 mg/kg sphingolipid-like compound 893 by gavage; SD mice were treated with vehicle. Based on the increased activity of mice during the dark cycle (ZT12-ZT24) and the plasma pharmacokinetics of orally administered sphingolipid-like compound 893 (see FIG. 12), mice were treated at ZT8.5 on Mondays, Wednesdays, and Fridays. […] In the group receiving 120 mg/kg sphingolipid-like compound 893, the rate of weight loss slowed after 10 days. […] Despite continued treatment with the high dose of sphingolipid-like compound 893, weight loss plateaued once body weight matched that of SD controls (FIGS. 16 and 18). […] As in a prior report where mice were dosed 5-7 days a week for 11 weeks (S. M. Kim, et al., 2016, cited supra), sphingolipid-like compound 893 was well-tolerated, and the behavior of sphingolipid-like compound 893-treated mice was overtly normal throughout the study.\nAll animal experiments were performed in accordance with the Institutional Animal Care and Use Committee of University of California, Irvine. Male mice were used in all experiments. C57BL/6J mice (stock no 000664) and ob/ob mice (stock no 000632) were purchased from the Jackson Laboratory and were acclimated for 7 days prior to beginning experiments. Mice were housed under a 12:12 h light-dark cycle at 20-22° C. in groups of 4-5. Cages contained ⅛″ corncob bedding (7092A, Envigo, Huntingdon, UK) enriched with ˜6 g of cotton fiber nestlets (Ancare Corp., Bellmore, N.Y.). Access to food and water was ad libitum unless otherwise specified. For HFD studies, 8 week old C57BL/6J males were randomly assigned to either a 45% kcal from fat diet (HFD; D12451, Research Diets Inc., New Brunswick, N.J.) or 10% kcal from fat diet designed to match D12451 for other components (SD; D12450B, Research Diets Inc). Mice were maintained on these diets for up to 22 weeks as indicated. Ob/ob mice were fed the vivarium stock diet which contained 16% kcal from fat (2020×, Envigo). Polypropylene feeding tubes (20 g×38 mm; Instech Laboratories Inc., Plymouth, Pa.) were utilized for gavage and dipped into a 1 g/ml sucrose solution immediately prior to treatment to induce salivation.\nHFD-fed mice were randomly assigned to experimental groups receiving either vehicle (water) or sphingolipid-like compound 893 at 60 mg/kg or 120 mg/kg by oral gavage on Mondays, Wednesdays, and Fridays. Mice were maintained on the HFD throughout the study. The SD group was treated with vehicle on the same schedule. Group size was initially n=10; one animal from the 60 mg/kg group that was euthanized due to gavage error was excluded from the analysis making this group n=9. All treatments and measurements were performed between ZT8 and ZT10 unless otherwise noted. Body weight and food consumption were monitored Monday-Friday. Body composition was determined weekly in live animals using an EchoMRI™ Body Composition Analyzer (EchoMRI™ Corp., Singapore). Mice were euthanized and tissues collected 4 h after treatment. Where indicated, mice were fasted for 6 h.", "data": [{"compound": "CCCCCCCCc1ccc([C@H]2CCN[C@@H]2CO)cc1.Cl", "note": "[compound 893]", "values": [{"measurement": "Fat mass gain", "setting": "HFD-fed mice, 60 mg/kg", "result": "gained fat mass at a similar rate to mice fed a standard diet"}, {"measurement": "Body weight versus chow-fed controls", "setting": "HFD-fed mice, 60 mg/kg by gavage Mon/Wed/Fri", "result": "no longer gained weight, but did not match chow-fed controls"}, {"measurement": "Body weight change during treatment", "setting": "HFD-fed mice, 60 mg/kg or 120 mg/kg by gavage Mon/Wed/Fri", "result": "dose-dependent weight loss"}, {"measurement": "Body weight versus chow-fed controls", "setting": "HFD-fed mice, 120 mg/kg by gavage Mon/Wed/Fri, after 2 weeks (6 doses)", "result": "no longer statistically different from that of mice continuously fed a standard chow diet"}, {"measurement": "Tolerability", "setting": "HFD-fed mice, 60 or 120 mg/kg Mon/Wed/Fri", "result": "well-tolerated"}, {"measurement": "Body composition underlying weight loss (fat mass, lean mass)", "setting": "HFD-fed mice, 60 or 120 mg/kg, EchoMRI", "result": "a decline in fat mass with little change in lean mass"}, {"measurement": "Reduction of body weight", "setting": "HFD-fed wild type mice, six doses of 120 mg/kg over 2 weeks", "result": 10, "unit": "%"}]}]}
